The experiment deals with T1, Angiotensin II Receptor (Bos taurus, UniProt P25104).
T1 construct: The brownish tissue forming the adrenal cortex is scraped off and finely minced with scissors before homogenization; tissue Maxwell-Cohen (local slaughter house); host or cells: beef adrenal cortex, microsomal membranes
T1 sequence (P25104 1-359): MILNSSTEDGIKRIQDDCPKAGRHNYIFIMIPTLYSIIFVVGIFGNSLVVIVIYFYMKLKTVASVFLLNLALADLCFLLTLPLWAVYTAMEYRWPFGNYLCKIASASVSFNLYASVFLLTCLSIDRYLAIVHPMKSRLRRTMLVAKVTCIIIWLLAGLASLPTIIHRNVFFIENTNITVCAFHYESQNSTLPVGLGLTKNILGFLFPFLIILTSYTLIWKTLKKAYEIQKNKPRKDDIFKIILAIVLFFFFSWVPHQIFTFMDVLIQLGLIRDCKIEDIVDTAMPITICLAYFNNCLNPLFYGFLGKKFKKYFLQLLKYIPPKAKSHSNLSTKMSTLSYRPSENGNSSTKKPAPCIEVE
The experiment can be described thus: Receptor Binding Assay: competition with [^125 I](Sar^1, Ile^8)AngII on adrenal cortex microsomal membranes. On the set-up: species or system beef. An excerpt: Beef adrenals are obtained from a local slaughter house (Maxwell-Cohen). […] All unlabeled AngII analogs, Dimethylsulfoxide (DMSO), nucleotides, bovine serum albumin (BSA) are purchased from Sigma Chemical Co., St. Louis, Mo. U.S.A.
Approximately sixteen (16) to twenty (20) beef adrenal glands are processed as follows: fresh adrenal glands received on crushed ice are cleaned of fatty tissues and the tough membranes encapsulating the glands are removed and discarded. The brownish tissue forming the adrenal cortex is scraped off and finely minced with scissors before homogenization. Care is taken to avoid contamination with medullary tissue during dissection. The scraped cortices are suspended in twenty volumes of an ice-cold buffer medium consisting of 10 mM Tris.HCl (pH 7.4 at 22° C.) and containing 1.0 mM EDTA and 0.2M sucrose. Unless otherwise indicated, all subsequent operations are done at 4° C. […] The homogenate is centrifuged first at low speed (3,000× g) for 10 min. The resulting pellet is discarded and the supernatant fluid recentrifuged at 10,000× g for 15 minutes to give a P2 pellet. […] The translucent final pellet is harvested and combined in a small volume (20-50.0 ml) of 50.0 mM Tris.HCl buffer, pH 7.2. […] The pelleted membrane is reconstituted in 50.0 mM Tris.HCl buffer containing 0.1 mM of phenylmethylsulfonyl fluoride (PMSF) to give approximately a protein concentration of 2.5 mg per ml of tissue suspension. The membrane preparation is finally aliquoted in 1.0 ml volumes and stored at -70° C. until use in the binding assays.
Assays are performed in triplicate. The wells are left undisturbed for 60 min. at room temperature. […] The filter discs are washed with 10×1.0 ml of cold 0.9% NaCl to remove unbound ligand. […] This method is routinely used. The filters are removed from the filter grid and counted in a Parkard® Cobra Gamma Counter for 1 min. (Packard Instrument Co., Downers Grove, Ill., U.S.A.).

As a reminder, the IC50 is the midpoint of a concentration-inhibition curve. Take `CCCCc1nc2ccc(C3CCC4CCCC4O3)cc2c(=O)n1Cc1ccc(-c2ccccc2-c2nn[nH]n2)cc1` (centres unmarked) [Example 10]: the concentration for half-maximal inhibition (IC50) (beef adrenal cortex membranes, [^125 I](Sar^1, Ile^8)AngII, 60 min, room temperature, pH 7.4) was 105 nM. That is a sub-micromolar value. “[^125 I](Sar^1, Ile^8)AngII [reference compound]”: where the note is “non-specific binding with 1.0 μM unlabeled (Sar^1, Ile^8)AngII”, the “Specific binding for [^125 I](Sar^1, Ile^8)AngII” value is reported as “greater than 90%”.

The values are drawn from US5338736A, “Angiotensin II receptor blocking 2,3,6-substituted quinazolinones” (American Cyanamid Company, priority 1993, dated 1994).
